Data reported in publication PMC5472279, “Genetic, structural, and chemical insights into the dual function of GRASP55 in germ cell Golgi remodeling and JAM-C polarized localization during spermatogenesis” (PLoS Genetics, 2017).
pIC50: −log10 of the molar value.

What was measured:
His-GRASP55 PDZ12 = target: T1, His-GRASP55 PDZ12 (Mus musculus, UniProt Q99JX3); assay: differential scanning fluorimetry (SYPRO orange); format: binding; settings: 4 μM protein, 50 μM Graspin, PBS, 2.5% DMSO
T1 construct: gene Gorasp2; tandem PDZ domains PDZ12 aa 2-208, N-terminal 6His tag, E. coli BL21(DE3)
Excerpt: differential scanning fluorimetry (SYPRO orange) on His-GRASP55 PDZ12 | […], but not the JAM-C peptide, decreased the GRASP55 melting temperature

GST-GRASP55 FL = target: T2, GST-GRASP55 FL (Mus musculus, UniProt Q99JX3); assay: HTRF competition with biotinylated JAM-B C-terminal 19-mer peptide; format: binding
T2 construct: gene Gorasp2; full-length aa 2-451, N-terminal GST tag, E. coli BL21(DE3)

- pIC50 (GST-GRASP55 FL): 5.08
SMILES: CCCCCn1c(SCCCn2c(Br)nc3c2c(=O)[nH]c(=O)n3C)nc2c1c(=O)[nH]c(=O)n2C [Graspin]
- dTm (His-GRASP55 PDZ12): Graspin, but not the JAM-C peptide, decreased the GRASP55 melting temperature
